One substance from publication PMC7163398 (ACS infectious diseases, 2017) can be followed below.

This test relates to 17S resistant S. aureus USA300 strains. As to the kind of experiment: Susceptibility of 17S resistant strains. The test is classed as cell-based, Staphylococcus aureus. The conditions noted are these: 17S resistant S. aureus USA300 strains tested against 1S.

On to humimycin A [1S], for which the “cross-resistance of 17S resistant strains” value is given as “cross-resistance”.
